From the NIST ThermoML archive (doi:10.1021/acs.jced.6b00951)
± gives the expanded uncertainty stated by the source.

Details: 100.3 kPa, Liquid; for viscosity: Capillary tube (Ostwald / Ubbelohde) method; for mass density: Vibrating tube method

O [water]
Details | mass density [kg/m3] | viscosity [mPa·s]
288.15 K | – | 1.139 ± 0.016
293.15 K | – | 1.002 ± 0.015
298.15 K | – | 0.8897 ± 0.015
303.15 K | – | 0.7988 ± 0.015
308.15 K | – | 0.7184 ± 0.015
313.15 K | – | 0.6525 ± 0.015
318.15 K | – | 0.596 ± 0.015
323.15 K | 988.04 ± 2.1 | 0.547 ± 0.015
328.15 K | 985.69 ± 2.1 | 0.5043 ± 0.015
